Patent publication US20240360114A1 (SIRONAX LTD., priority 2021, published 2024)
pEC50: −log10 of the molar value.

Test system: HT-1080 cells
Assay: HT-1080 cell viability assay (ferroptosis induced by RSL3, Cell Titer-Glo)
Assay type: cell-based
Settings: ferroptosis inducer RSL3, 20 hours, ferroptosis inhibitory activity
Procedure, shortened: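 EC50 fitted by sigmoidal dose-response regression on luminescent viability data normalized to untreated cells. Compounds ran as a 10-point, 3-fold series from 1.1 μM alongside RSL3 for 20 hours, after overnight seeding.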

[1] = Homo sapiens, HT-1080, 20 h, Table 2
[2] = Homo sapiens, HT-1080, 20 h, Table 3

Structure (SMILES) | pEC50 [1] | further results
CCCNc1ccc(N2CCC(C(F)(F)F)CC2)cc1 [Compound 14, N-propyl-4-(4-(trifluoromethyl)piperidin-1-yl)aniline] | 7.00 to 10.00 | –
CC(C)C1CCN(c2ncc(NC3C4CC5CC3CC(N)(C5)C4)cn2)CC1 (stereo not drawn) [Compound 368, N4-(2-(4-isopropylpiperidin-1-yl)pyrimidin-5-yl)adamantane-1,4-diamine] | 7.00 to 10.00 | –
CC(C)(C)c1ccc(NCCn2ccnc2)cc1 [Compound 175, N-(2-(1H-imidazol-1-yl)ethyl)-4-(tert-butyl)aniline] | 5.00 to 6.00 | –
CC(C)(C)c1ccc(N[C@H]2CC[C@H](N)CC2)cc1 [Compound 197, (1r,4r)-N1-(4-(tert-butyl)phenyl)cyclohexane-1,4-diamine] | 7.00 to 10.00 | –
Cc1cc(N2CCCCC2)ccc1NC[C@H]1CC[C@H](N)CC1 [Compound 379, N-(((1r,4r)-4-aminocyclohexyl)methyl)-2-methyl-4-(piperidin-1-yl)aniline] | 7.00 to 10.00 | –
CC(C)(C)c1ccc(NCC2CC(N)C2)cc1 (single isomer, unassigned) [Compound 335A, N-((3-aminocyclobutyl)methyl)-4-(tert-butyl)aniline] | – | pEC50 (Table 2): 6.00 to 7.00
Cc1nc(N2CC[Si](C)(C)CC2)ccc1NC1CC(N)C1 (stereo not drawn) [Compound 608, N1-(6-(4,4-dimethyl-1,4-azasilinan-1-yl)-2-methylpyridin-3-yl)cyclobutane-1,3-diamine] | – | pEC50 [2]: 7.00 to 10.00
Cc1nc(N2CCC(C)(C)CC2)ccc1NC1CC2(CC(N)C2)C1 (stereo not drawn) [Compound 602, N2-(6-(4,4-dimethylpiperidin-1-yl)-2-methylpyridin-3-yl)spiro[3.3]heptane-2,6-diamine] | – | pEC50 [2]: 7.00 to 10.00
CC1(C)CN(c2ccc(NC[C@H]3CC[C@H](N)CC3)cc2)CC(C)(C)O1 [Compound 445, N-(((1r,4r)-4-aminocyclohexyl)methyl)-4-(2,2,6,6-tetramethylmorpholino)aniline] | 7.00 to 10.00 | –
NC1CCC(Nc2ccc(N3CCCCC3CO)cc2)CC1 (single isomer, unassigned) [Compound 417A, (1-(4-((4-aminocyclohexyl)amino)phenyl)piperidin-2-yl)methanol] | – | pEC50 (Table 2): 7.00 to 10.00
NC1CC2(C1)CC(Nc1ccc3cc(N4CCOC(C(F)(F)F)C4)ccc3c1)C2 (stereo not drawn) [Compound 653, N2-(6-(2-(trifluoromethyl)morpholino)naphthalen-2-yl)spiro[3.3]heptane-2,6-diamine] | – | pEC50 [2]: 7.00 to 10.00
CC(N)C1CCC(Nc2ccc(C(C)(C)C)cc2)CC1 (stereo not drawn) [Compound 290, N-(4-(1-aminoethyl)cyclohexyl)-4-(tert-butyl)aniline] | 7.00 to 10.00 | –
CC1(C)CCC(c2ccc(NC3CCC(C(C)(C)N)CC3)cc2)CC1 (stereo not drawn) [Compound 226, N-(4-(2-aminopropan-2-yl)cyclohexyl)-4-(4,4-dimethylcyclohexyl)aniline] | – | pEC50 (Homo sapiens, Table 2): 7.00 to 10.00
Cc1nc(N2CCC3(CCOCC3)CC2)ccc1NC[C@H]1CC[C@H](N)CC1 [Compound 582, N-(((1r,4r)-4-aminocyclohexyl)methyl)-2-methyl-6-(3-oxa-9-azaspiro [5.5]undecan-9-yl)pyridin-3-amine] | – | pEC50 [2]: 7.00 to 10.00
CC1CN(c2ccc(NC3CCC(C)(N)CC3)cc2F)CC(C)O1 (stereo not drawn) [Compound 458, N1-(4-(2,6-dimethylmorpholino)-3-fluorophenyl)-4-methylcyclohexane-1,4-diamine] | 6.00 to 7.00 | –
Cc1cc(NC(C)(C)C)ccc1NC[C@H]1CC[C@H](N)CC1 [Compound 597, N^1-(((1r,4r)-4-aminocyclohexyl)methyl)-N^4-(tert-butyl)-2-methylbenzene-1,4-diamine] | – | pEC50 [2]: 7.00 to 10.00
Cc1cc(NC2CC(N)C2)ccc1N1CC(C)N(CC(F)(F)F)C(C)C1 (stereo not drawn) [Compound 612, N1-(4-(3,5-dimethyl-4-(2,2,2-trifluoroethyl)piperazin-1-yl)-3-methylphenyl)cyclobutane-1,3-diamine] | – | pEC50 [2]: 7.00 to 10.00
Cc1cc(N2CC[Si](C)(C)CC2)ccc1NC1CC2(CC(N)C2)C1 (stereo not drawn) [Compound 634, N2-(4-(4.4-dimethyl-1,4-azasilinan-1-yl)-2-methylphenyl)spiro[3.3]heptane-2,6-diamine] | – | pEC50 [2]: 7.00 to 10.00
CC1CN(c2ncc(NC3CC4(CC(N)C4)C3)cc2F)CC(C)N1CC(F)(F)F (stereo not drawn) [Compound 580, N^2-(6-(3.5-dimethyl-4-(2,2,2-trifluoroethyl)piperazin-1-yl)-5-fluoropyridin-3-yl)spiro[3.3]hept ane-2,6-diamine] | – | pEC50 [2]: 7.00 to 10.00
CC1(C)CCC(c2ccc(NC3CCC(N)CC3)cc2)CC1 (single isomer, unassigned) [Compound 120A, N1-(4-(4,4-dimethylcyclohexyl)phenyl)cyclohexane-1,4-diamine] | 7.00 to 10.00 | –
NC1CCC(Nc2ccc3nc(N4CCC(C(F)(F)F)CC4)cnc3c2)CC1 (stereo not drawn) [Compound 573, N1-(2-(4-(trifluoromethyl)piperidin-1-yl)quinoxalin-6-yl)cyclohexane-1,4-diamine] | 7.00 to 10.00 | –
CN(CC(F)(F)F)c1ccc2cc(NC3CC(N)C3)ccc2c1 (stereo not drawn) [Compound 654] | – | pEC50 [2]: 7.00 to 10.00
CN(C)C1CCC(Nc2ccc(C(C)(C)C)cc2)CC1 (single isomer, unassigned) [Compound 193A, N1-(4-(tert-butyl)phenyl)-N4,N4-dimethylcyclohexane-1,4-diamine] | 6.00 to 7.00 | –
Cc1nc(N2CCC(C(F)(F)F)CC2)ncc1NC1CCC(N)CC1 (single isomer, unassigned) [Compound 65A, N1-(4-methyl-2-(4-(trifluoromethyl)piperidin-1-yl)pyrimidin-5-yl)cyclohexane-1,4-diamine] | 7.00 to 10.00 | –
Cc1nc(N2CC[Si](C)(C)CC2)ccc1NC1CC2(CC(N)C2)C1 (stereo not drawn) [Compound 556, N2-(6-(4,4-dimethyl-1,4-azasilinan-1-yl)-2-methylpyridin-3-yl)spiro[3.3]heptane-2,6-diamine] | 7.00 to 10.00 | –
Cc1cc(NC2CC3(CC(N)C3)C2)c(C)nc1N1CC(C)OC(C)C1 (stereo not drawn) [Compound 476, N2-(6-(2,6-dimethylmorpholino)-2,5-dimethylpyridin-3-yl)spiro[3.3]heptane-2,6-diamine] | 7.00 to 10.00 | –
CC1CN(c2ccc(NC[C@H]3CC[C@H](N)CC3)cc2F)CC(C)O1 (stereo partly drawn) [Compound 430, N-(((1r,4r)-4-aminocyclohexyl)methyl)-4-(2,6-dimethylmorpholino)-3-fluoroaniline] | 7.00 to 10.00 | –

More lines, main results first:

pEC50 [1] | Structure (SMILES) | further results
6.00 to 7.00 | CC1CN(c2ccc(NC3CC4(CC(N)C4)C3)cc2F)CC(C)O1 (stereo not drawn) [Compound 457, N2-(4-(2,6-dimethylmorpholino)-3-fluorophenyl)spiro[3.3]heptane-2,6-diamine] | –
7.00 to 10.00 | CC1(C)CCN(c2ccc(NC3CCC(N)CC3)cc2)CC1 (stereo not drawn) [Compound 62, N1-(4-(4,4-dimethylpiperidin-1-yl)phenyl)cyclohexane-1,4-diamine] | –
6.00 to 7.00 | CNCC1CCC(Nc2ccc(C(C)(C)C)cc2)C1 (stereo not drawn) [Compound 263, 4-(tert-butyl)-N-(3-((methylamino)methyl)cyclopentyl)aniline] | –
7.00 to 10.00 | CC1(C)CCC(c2ccc(NC3CCC(CCNC(N)=O)CC3)cc2)CC1 (stereo not drawn) [Compound 243] | –
7.00 to 10.00 | NC1CCC(Nc2ccc3cc(N4CCC(C(F)(F)F)CC4)cnc3c2)CC1 (stereo not drawn) [Compound 572, N1-(3-(4-(trifluoromethyl)piperidin-1-yl)quinolin-7-yl)cyclohexane-1,4-diamine] | –
7.00 to 10.00 | Cc1nc(N2CC3COCC3C2)ccc1NC1CC2(CC(N)C2)C1 (stereo not drawn) [Compound 521] | –
7.00 to 10.00 | CC1CCN(c2ccc(NC3CCC(N)CC3)cc2C(F)(F)F)CC1 (stereo not drawn) [Compound 53A, N1-(4-(4-methylpiperidin-1-yl)-3-(trifluoromethyl)phenyl)cyclohexane-1,4-diamine] | –
7.00 to 10.00 | CC[C@@H]1CN(c2ccc(NC[C@H]3CC[C@H](N)CC3)c(C)n2)C[C@@H](CC)O1 [Compound 548, N-(((1r,4R)-4-aminocyclohexyl)methyl)-6-((2R,6R)-2,6-diethylmorpholino)-2-methylpyridin-3-amine] | –
7.00 to 10.00 | CCN1CC(C(=O)NCC2CCC(Nc3ccc(N4CCC(C(F)(F)F)CC4)cc3)CC2)CC1=O (stereo not drawn) [Compound 1, 1-ethyl-5-oxo-N-((4-((4-(4-(trifluoromethyl)piperidin-1-yl)phenyl)amino)cyclohexyl)methyl) pyr rolidine-3-carboxamide] | –
6.00 to 7.00 | CC1(C)CCC(c2ccc(NCCN)cc2)CC1 [Compound 176, N1-(4-(4,4-dimethylcyclohexyl)phenyl)ethane-1,2-diamine] | –
6.00 to 7.00 | CN(C)CCOC1CCC(Nc2ccc(C(C)(C)C)cc2)CC1 (stereo not drawn) [Compound 319A, 4-(tert-butyl)-N-(4-(2-(dimethylamino)ethoxy)cyclohexyl)aniline] | –
7.00 to 10.00 | NC1CCC(Nc2ccc3nc(N4CCC(C(F)(F)F)CC4)ccc3c2)CC1 (stereo not drawn) [Compound 562, N-(2-(4-(trifluoromethyl)piperidin-1-yl)quinolin-6-yl)cyclohexane-1,4-diamine] | –
7.00 to 10.00 | CC(C)c1ccc(NC2CCC(CN)CC2)cc1 (stereo not drawn) [Compound 283, N-(4-(aminomethyl)cyclohexyl)-4-isopropylaniline] | –
6.00 to 7.00 | CC(C)(C)c1ccc(NC2CCC(NC(N)=O)CC2)cc1 (stereo not drawn) [Compound 266A, 1-(4-((4-(tert-butyl)phenyl)amino)cyclohexyl)urea] | –
7.00 to 10.00 | CCCCc1ccc(NC2CCC(N)CC2)cc1 (stereo not drawn) [Compound 137, N1-(4-butylphenyl)cyclohexane-1,4-diamine] | –
5.00 to 6.00 | CC(C)(C)c1ccc(NC(CCO)CCO)cc1 [Compound 234, 3-((4-(tert-butyl)phenyl)amino) pentane-1,5-diol] | –
7.00 to 10.00 | NC[C@@H]1CCC(Nc2ccc(N3CCC(C(F)(F)F)CC3)cc2)[C@@H](N)C1 (stereo partly drawn) [Compound 503, (2S, 4R)-4-(aminomethyl)-N1-(4-(4-(trifluoromethyl)piperidin-1-yl)phenyl)cyclohexane-1,2-dia mine bis(2,2,2-trifluoroacetate)] | –
5.00 to 6.00 | CC(C)(C)c1ccc(NCCOCCO)cc1 [Compound 179, 2-(2-((4-(tert-butyl)phenyl)amino)ethoxy) ethan-1-ol] | –
